Values quoted from earlier work, collected in article PMC3226709 (Journal of the American Chemical Society, 2011).

System: GSTO1
Details: read-out: IC50 for GSTO1 inhibition

Q: Which IC50 does the source give for CC(=O)Oc1ccc2c(c1)Oc1cc(OC(C)=O)ccc1C21OC(=O)c2cc(CCl)ccc21 [CellTracker Green, 5-chloromethylfluorescein diacetate] here?
A: The IC50 was 51 nM.
